± gives the expanded uncertainty stated by the source.
Details: 101 kPa, Liquid

SMILES | mass density (293.15 K) [kg/m3] | viscosity (293.15 K) [mPa·s] | mass density (298.15 K) [kg/m3] | viscosity (298.15 K) [mPa·s]
CCCCCCCO [heptan-1-ol] | 822.2 ± 0.6 | 7.104 ± 0.14 | 818.7 ± 0.6 | 5.993 ± 0.12
CCCCCCCCCO [nonan-1-ol] | 827.9 ± 0.7 | 11.68 ± 0.22 | 824.4 ± 0.7 | 9.671 ± 0.18
CCCCCO [pentan-1-ol] | 814.6 ± 0.6 | 4.029 ± 0.089 | 811 ± 0.6 | 3.494 ± 0.077
CCCO [propan-1-ol] | 803.5 ± 0.7 | 2.272 ± 0.052 | 799.6 ± 0.7 | 1.966 ± 0.045

Source: the NIST ThermoML archive (doi:10.1021/je800497u)
